Experimental data from ChEMBL document CHEMBL1687697 (ACS Med Chem Lett, 2010).
Calls of active or inactive are those of the source. No cut-off for these calls is given here.

Experiments:
DU-145 [1] = assay: Induction of apoptosis in human DU145 cells assessed as necrotic cells at 10 uM after 72 hrs by AnnexinV-propidium iodide based FACS flow cytometry; format: functional
[2] = target: RAC-alpha serine/threonine-protein kinase (Homo sapiens, UniProt P31749); assay: Inhibition of Akt1 after 60 mins by radiometric assay
Chain of RAC-alpha serine/threonine-protein kinase (P31749 whole entry): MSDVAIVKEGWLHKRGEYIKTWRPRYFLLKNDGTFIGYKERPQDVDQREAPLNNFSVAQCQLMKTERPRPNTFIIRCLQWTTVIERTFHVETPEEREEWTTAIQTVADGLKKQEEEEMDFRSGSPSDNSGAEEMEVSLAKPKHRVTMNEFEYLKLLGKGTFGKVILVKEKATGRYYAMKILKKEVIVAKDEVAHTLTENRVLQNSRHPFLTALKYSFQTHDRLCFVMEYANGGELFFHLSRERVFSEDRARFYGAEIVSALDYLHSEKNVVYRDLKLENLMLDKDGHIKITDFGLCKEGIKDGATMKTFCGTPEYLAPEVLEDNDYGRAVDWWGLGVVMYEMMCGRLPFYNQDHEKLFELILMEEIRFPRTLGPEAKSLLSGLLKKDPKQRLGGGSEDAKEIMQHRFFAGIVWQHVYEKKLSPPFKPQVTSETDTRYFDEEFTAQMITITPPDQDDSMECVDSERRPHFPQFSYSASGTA

DU-145 [3] = assay: Effect on phosphorylated-JAK2 protein level in human DU145 cells at 0.1 to 2 uM after 24 hrs by Western blot analysis; format: functional, cell-based
DU-145 [4] = assay: Induction of apoptosis in human DU145 cells assessed as late apoptotic cells at 5 uM after 72 hrs by AnnexinV-propidium iodide based FACS flow cytometry; format: functional
DU-145 [5] = assay: Induction of apoptosis in human DU145 cells assessed as necrotic cells at 5 uM after 72 hrs by AnnexinV-propidium iodide based FACS flow cytometry; format: functional
DU-145 [6] = assay: Antiproliferative activity against human DU145 cells after 72 hrs by MTT assay; format: functional, cell-based; conditions: DU-145, 72 h
Aurora kinase A = Aurora kinase A (Homo sapiens, UniProt O14965); assay: Inhibition of Aurora-A after 60 mins by radiometric assay
Chain of Aurora kinase A (O14965 whole entry): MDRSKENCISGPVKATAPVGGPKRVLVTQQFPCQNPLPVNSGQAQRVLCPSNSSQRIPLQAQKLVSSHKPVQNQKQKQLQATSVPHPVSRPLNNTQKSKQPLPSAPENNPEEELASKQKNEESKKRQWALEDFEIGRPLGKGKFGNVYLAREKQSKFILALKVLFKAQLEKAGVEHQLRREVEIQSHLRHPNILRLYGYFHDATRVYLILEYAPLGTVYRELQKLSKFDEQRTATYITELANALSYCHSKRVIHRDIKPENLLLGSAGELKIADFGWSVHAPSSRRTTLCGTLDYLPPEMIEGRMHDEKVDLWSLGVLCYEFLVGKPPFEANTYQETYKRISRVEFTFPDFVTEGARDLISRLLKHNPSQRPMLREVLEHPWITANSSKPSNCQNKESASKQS

[7] = target: Mitogen-activated protein kinase 8 (Homo sapiens, UniProt P45983); assay: Inhibition of JNK1 after 60 mins by radiometric assay
Chain of Mitogen-activated protein kinase 8 (P45983 whole entry): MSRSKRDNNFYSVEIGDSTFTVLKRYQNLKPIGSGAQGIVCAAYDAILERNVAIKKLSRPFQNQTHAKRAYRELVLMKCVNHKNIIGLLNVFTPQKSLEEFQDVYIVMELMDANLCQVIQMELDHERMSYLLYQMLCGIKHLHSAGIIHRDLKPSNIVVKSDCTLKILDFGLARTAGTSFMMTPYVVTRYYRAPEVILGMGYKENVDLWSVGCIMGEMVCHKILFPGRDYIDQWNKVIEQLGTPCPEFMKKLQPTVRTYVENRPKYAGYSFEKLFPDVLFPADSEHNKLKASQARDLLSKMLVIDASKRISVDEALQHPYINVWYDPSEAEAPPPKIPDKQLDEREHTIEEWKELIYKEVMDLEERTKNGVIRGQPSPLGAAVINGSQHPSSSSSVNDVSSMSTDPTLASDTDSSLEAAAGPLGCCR

DU-145 [8] = assay: Effect on Tyr527 phosphorylated-Src protein level in human DU145 cells at 0.1 to 2 uM after 24 hrs by Western blot analysis; format: functional, cell-based
DU-145 [9] = assay: Decrease in STAT3 protein level in human DU145 cells after 24 hrs by Western blot analysis; format: functional, cell-based
DU-145 [10] = assay: Effect on JAK2 protein level in human DU145 cells at 0.1 to 2 uM after 2 hrs by Western blot analysis; format: functional, cell-based
DU-145 [11] = assay: Decrease in cyclin D1 protein level in human DU145 cells at 0.1 to 2 uM after 2 hrs by Western blot analysis; format: functional, cell-based
DU-145 [12] = assay: Effect on Src protein level in human DU145 cells at 0.1 to 2 uM after 24 hrs by Western blot analysis; format: functional, cell-based
[13] = target: Signal transducer and activator of transcription 3 (Homo sapiens) (UniProt P40763); assay: Inhibition of STAT3 interaction with DNA binding site in human DU145 cells at 05 to 10 uM after 2 hrs by EMSA; format: cell-based; conditions: DU-145
Chain of Signal transducer and activator of transcription 3 (Homo sapiens) (P40763 whole entry): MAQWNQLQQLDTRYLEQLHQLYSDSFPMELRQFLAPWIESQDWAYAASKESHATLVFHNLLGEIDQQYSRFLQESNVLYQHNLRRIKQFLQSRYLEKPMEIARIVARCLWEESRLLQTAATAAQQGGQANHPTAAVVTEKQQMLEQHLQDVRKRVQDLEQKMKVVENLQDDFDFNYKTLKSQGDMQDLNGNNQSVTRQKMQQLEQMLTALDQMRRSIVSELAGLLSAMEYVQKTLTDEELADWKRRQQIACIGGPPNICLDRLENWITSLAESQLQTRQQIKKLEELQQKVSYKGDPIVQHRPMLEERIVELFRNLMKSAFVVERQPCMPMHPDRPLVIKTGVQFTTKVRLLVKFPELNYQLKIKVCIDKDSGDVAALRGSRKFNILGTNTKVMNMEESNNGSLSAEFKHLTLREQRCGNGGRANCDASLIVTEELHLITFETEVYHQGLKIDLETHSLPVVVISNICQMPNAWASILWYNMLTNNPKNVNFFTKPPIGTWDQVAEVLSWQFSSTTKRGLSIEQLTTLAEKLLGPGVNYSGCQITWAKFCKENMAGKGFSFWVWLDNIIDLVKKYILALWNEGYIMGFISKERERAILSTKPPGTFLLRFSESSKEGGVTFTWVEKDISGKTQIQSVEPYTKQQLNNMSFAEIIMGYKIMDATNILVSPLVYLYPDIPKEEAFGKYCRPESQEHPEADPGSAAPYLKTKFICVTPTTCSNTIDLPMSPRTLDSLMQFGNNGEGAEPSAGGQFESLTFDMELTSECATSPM

DU-145 [14] = assay: Induction of apoptosis in human DU145 cells assessed as late apoptotic cells at 10 uM after 72 hrs by AnnexinV-propidium iodide based FACS flow cytometry; format: functional
DU-145 [15] = assay: Effect on JAK1 protein level in human DU145 cells at 0.1 to 2 uM after 24 hrs by Western blot analysis; format: functional, cell-based
[16] = target: Signal transducer and activator of transcription 3 (Homo sapiens) (UniProt P40763); assay: Inhibition of STAT3 in human HeLa cells at 5 uM after 24 hrs by luciferase reporter gene assay; format: cell-based
[17] = Inhibition of Raf Y340D/Y341D mutant after 60 mins by radiometric assay
DU-145 [18] = assay: Induction of apoptosis in human DU145 cells assessed as early apoptotic cells at 1 uM after 72 hrs by AnnexinV-propidium iodide based FACS flow cytometry; format: functional
DU-145 [19] = assay: Induction of apoptosis in human DU145 cells assessed as viable cells at 1 uM after 72 hrs by AnnexinV-propidium iodide based FACS flow cytometry; format: functional; conditions: DU-145, 72 h, read-out: Activity
[20] = target: Mast/stem cell growth factor receptor Kit (Homo sapiens, UniProt P10721); assay: Inhibition of KIT after 60 mins by radiometric assay
Chain of Mast/stem cell growth factor receptor Kit (P10721 whole entry): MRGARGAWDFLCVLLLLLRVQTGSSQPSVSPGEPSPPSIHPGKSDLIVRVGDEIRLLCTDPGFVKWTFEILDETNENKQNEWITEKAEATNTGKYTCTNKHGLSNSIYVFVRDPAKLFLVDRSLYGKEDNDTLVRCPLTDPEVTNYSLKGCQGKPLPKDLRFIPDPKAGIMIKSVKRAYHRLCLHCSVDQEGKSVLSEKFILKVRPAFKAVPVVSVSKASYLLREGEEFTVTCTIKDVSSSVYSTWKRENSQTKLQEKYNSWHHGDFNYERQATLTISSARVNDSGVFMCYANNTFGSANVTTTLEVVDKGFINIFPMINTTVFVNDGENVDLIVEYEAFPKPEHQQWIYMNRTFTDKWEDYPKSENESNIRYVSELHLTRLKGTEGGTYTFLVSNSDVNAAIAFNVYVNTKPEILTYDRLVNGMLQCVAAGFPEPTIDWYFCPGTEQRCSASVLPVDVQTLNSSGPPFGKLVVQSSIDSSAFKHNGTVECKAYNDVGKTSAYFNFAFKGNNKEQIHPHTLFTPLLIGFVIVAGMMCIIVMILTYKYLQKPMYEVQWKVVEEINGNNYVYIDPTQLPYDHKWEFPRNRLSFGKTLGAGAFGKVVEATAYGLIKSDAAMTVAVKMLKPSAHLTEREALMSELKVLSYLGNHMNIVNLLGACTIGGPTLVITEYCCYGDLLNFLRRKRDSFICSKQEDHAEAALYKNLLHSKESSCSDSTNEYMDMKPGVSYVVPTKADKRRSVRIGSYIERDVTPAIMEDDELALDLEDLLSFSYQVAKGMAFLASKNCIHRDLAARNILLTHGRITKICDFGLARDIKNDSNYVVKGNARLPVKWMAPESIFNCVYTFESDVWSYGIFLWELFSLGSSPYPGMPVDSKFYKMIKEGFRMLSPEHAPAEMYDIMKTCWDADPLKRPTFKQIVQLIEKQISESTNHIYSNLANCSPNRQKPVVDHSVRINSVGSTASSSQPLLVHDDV

[21] = target: Signal transducer and activator of transcription 3 (Homo sapiens) (UniProt P40763); assay: Inhibition of STAT3 phosphorylation Ser727 in human DU145 cells after 24 hrs by Western blot analysis; format: cell-based; conditions: DU-145
DU-145 [22] = assay: Cell cycle arrest in human DU145 cells assessed as accumulation in G2/M phase at 1 uM after 24 hrs by FACS flow cytometry; format: functional
[23] = target: 3-phosphoinositide-dependent protein kinase 1 (Homo sapiens, UniProt O15530); assay: Inhibition of PDK1 after 60 mins by radiometric assay
Chain of 3-phosphoinositide-dependent protein kinase 1 (O15530 whole entry): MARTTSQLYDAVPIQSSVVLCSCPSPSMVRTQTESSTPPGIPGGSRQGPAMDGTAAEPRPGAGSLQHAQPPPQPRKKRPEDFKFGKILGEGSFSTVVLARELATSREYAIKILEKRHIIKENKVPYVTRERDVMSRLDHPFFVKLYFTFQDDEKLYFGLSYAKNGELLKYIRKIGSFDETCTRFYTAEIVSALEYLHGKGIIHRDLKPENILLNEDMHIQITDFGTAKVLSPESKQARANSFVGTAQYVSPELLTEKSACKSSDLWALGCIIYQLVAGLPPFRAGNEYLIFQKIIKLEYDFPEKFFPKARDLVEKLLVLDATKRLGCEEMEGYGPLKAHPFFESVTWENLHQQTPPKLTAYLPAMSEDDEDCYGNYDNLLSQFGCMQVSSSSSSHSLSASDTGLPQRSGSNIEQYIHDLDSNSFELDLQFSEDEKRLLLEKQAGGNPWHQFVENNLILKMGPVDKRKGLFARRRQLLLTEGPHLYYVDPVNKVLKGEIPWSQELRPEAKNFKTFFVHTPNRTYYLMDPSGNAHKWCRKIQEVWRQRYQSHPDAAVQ

DU-145 [24] = assay: Effect on JAK2 protein level in human DU145 cells at 0.1 to 2 uM after 24 hrs by Western blot analysis; format: functional, cell-based
DU-145 [25] = assay: Cell cycle arrest in human DU145 cells assessed as accumulation in G0/G1 phase at 0.5 uM after 24 hrs by FACS flow cytometry; format: functional
[26] = target: Signal transducer and activator of transcription 1-alpha/beta (Homo sapiens) (UniProt P42224); assay: Inhibition of STAT1 phosphorylation at Tyr701 after 2 hrs by Western blot analysis
Chain of Signal transducer and activator of transcription 1-alpha/beta (Homo sapiens) (P42224 whole entry): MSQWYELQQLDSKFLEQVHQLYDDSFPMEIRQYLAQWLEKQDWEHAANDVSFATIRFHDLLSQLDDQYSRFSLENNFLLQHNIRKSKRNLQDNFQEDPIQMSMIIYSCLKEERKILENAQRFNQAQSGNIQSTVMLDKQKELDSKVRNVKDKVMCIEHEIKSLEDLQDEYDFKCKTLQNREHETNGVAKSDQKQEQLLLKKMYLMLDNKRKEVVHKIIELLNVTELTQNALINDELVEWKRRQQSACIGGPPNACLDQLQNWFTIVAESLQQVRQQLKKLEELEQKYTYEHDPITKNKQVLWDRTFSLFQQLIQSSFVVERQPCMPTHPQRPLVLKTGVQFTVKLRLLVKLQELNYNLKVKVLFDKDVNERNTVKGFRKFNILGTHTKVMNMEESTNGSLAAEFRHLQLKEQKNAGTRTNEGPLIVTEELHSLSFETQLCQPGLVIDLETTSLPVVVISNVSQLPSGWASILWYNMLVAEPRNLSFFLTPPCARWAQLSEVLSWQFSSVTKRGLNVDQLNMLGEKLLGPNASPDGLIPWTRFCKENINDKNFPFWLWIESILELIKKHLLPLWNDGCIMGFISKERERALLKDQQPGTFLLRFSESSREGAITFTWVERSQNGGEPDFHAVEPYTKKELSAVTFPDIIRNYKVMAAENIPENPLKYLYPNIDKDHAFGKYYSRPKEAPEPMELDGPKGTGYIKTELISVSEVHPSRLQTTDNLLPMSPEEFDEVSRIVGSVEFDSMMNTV

DU-145 [27] = assay: Effect on phosphorylated JAK1 protein level in human DU145 cells at 0.1 to 2 uM after 24 hrs by Western blot analysis; format: functional, cell-based
[28] = target: Signal transducer and activator of transcription 3 (Homo sapiens) (UniProt P40763); assay: Inhibition of STAT3 phosphorylation at Tyr705 in human DU145 cells at 2 uM within 2 hrs by Western blot analysis; format: cell-based; conditions: DU-145
DU-145 [29] = assay: Cell cycle arrest in human DU145 cells assessed as accumulation in S phase at 0.5 uM after 24 hrs by FACS flow cytometry; format: functional
HeLa = assay: Antiproliferative activity against human HeLa cells after 72 hrs by MTT assay; format: functional, cell-based
DU-145 [30] = assay: Cell cycle arrest in human DU145 cells assessed as accumulation in G2/M phase at 0.2 uM after 24 hrs by FACS flow cytometry; format: functional
A549 = assay: Antiproliferative activity against human A549 cells after 72 hrs by MTT assay; format: functional, cell-based; conditions: A549, 72 h
DU-145 [31] = assay: Effect on JAK1 protein level in human DU145 cells at 0.1 to 2 uM after 2 hrs by Western blot analysis; format: functional, cell-based
DU-145 [32] = assay: Cell cycle arrest in human DU145 cells assessed as accumulation in G0/G1 phase at 0.2 uM after 24 hrs by FACS flow cytometry; format: functional
DU-145 [33] = assay: Induction of apoptosis in human DU145 cells assessed as necrotic cells at 1 uM after 72 hrs by AnnexinV-propidium iodide based FACS flow cytometry; format: functional

- IC50 [2]: 59.4 µM
- IC50 (DU-145 [6]): 700 nM
- IC50 (Aurora kinase A): 54.1 µM
- IC50 [7]: > 100 µM
- inhibition [13]: Active
- inhibition [16]: Active
- IC50 [17]: > 100 µM
- IC50 [20]: 27.8 µM
- inhibition [21]: inactive
- IC50 [23]: 83.9 µM
- inhibition [26]: inactive
- inhibition [28]: Active
- IC50 (HeLa): 1400 nM
- IC50 (A549): 3000 nM
SMILES: O=C(Nc1ccc([N+](=O)[O-])cc1Cl)c1cc(Cl)ccc1O [NICLOSAMIDE]
- Activity (DU-145 [1]): 2.43%
- Activity (DU-145 [3]): inactive
- Activity (DU-145 [4]): 25.41%
- Activity (DU-145 [5]): 2.27%
- Activity (DU-145 [8]): inactive
- Activity (DU-145 [9]): inactive
- Activity (DU-145 [10]): inactive
- Activity (DU-145 [11]): Active
- Activity (DU-145 [12]): inactive
- Activity (DU-145 [14]): 38.72%
- Activity (DU-145 [15]): inactive
- Activity (DU-145 [18]): 4.84%
- viability at 1 µM (DU-145 [19]): 83.9%
- Activity (DU-145 [22]): 7.83%
- Activity (DU-145 [24]): inactive
- Activity (DU-145 [25]): 57.4%
- Activity (DU-145 [27]): inactive
- Activity (DU-145 [29]): 32.84%
- Activity (DU-145 [30]): 13.11%
- Activity (DU-145 [31]): inactive
- Activity (DU-145 [32]): 48.4%
- Activity (DU-145 [33]): 2.63%
